Laboratory results taken from BindingDB's records for doi:10.3109/14756366.2010.491795 (Dumlupinar University, 2011).

Columns and labels:
[1] = target: T1, Carbonic anhydrase 1 (Homo sapiens, UniProt P00915); test: Hydratase Activity Assay
[2] = target: T2, Carbonic anhydrase 2 (Homo sapiens, UniProt P00918); test: Hydratase Activity Assay
[3] = target: T1, Carbonic anhydrase 1; test: Esterase Activity Assay; conditions: pH 7.4
Description: (§1) The enzymatic reaction, in a total volume of 3 mL, contained 1.4 mL of 0.05 M tris-SO4 buffer (pH 7.4), 1 mL of 3 mM 4-nitrophenylacetate, 0.5 mL H2O and 0.1 mL enzyme solution. A reference measurement was obtained by preparing the same cuvette without any enzyme solution.

[4] = target: T2, Carbonic anhydrase 2; test: Esterase Activity Assay; conditions: pH 7.4
Description: as §1

[5] = target: T1, Carbonic anhydrase 1; test: Enzyme Activity Assay
[6] = target: T2, Carbonic anhydrase 2; test: Enzyme Activity Assay

T1 sequence (P00915 whole entry): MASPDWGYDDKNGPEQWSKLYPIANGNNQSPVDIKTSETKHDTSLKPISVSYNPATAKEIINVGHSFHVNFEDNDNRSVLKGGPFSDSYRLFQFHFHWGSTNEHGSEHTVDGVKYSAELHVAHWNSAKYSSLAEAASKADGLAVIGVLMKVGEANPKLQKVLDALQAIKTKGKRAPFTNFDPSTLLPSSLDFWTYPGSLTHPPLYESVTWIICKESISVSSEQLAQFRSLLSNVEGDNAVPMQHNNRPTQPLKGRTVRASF

IC50 [1] | IC50 [2] | IC50 [3] | IC50 [4] | Ki [5] | Ki [6] | Structure (SMILES)
850 nM | 1000 nM | 380 nM | 70 nM | 300 nM | 65 nM | CCOC(=O)C(=NNc1ccc(-n2nc(C(=O)Nc3nnc(S(N)(=O)=O)s3)c(C(=O)c3ccccc3)c2-c2ccccc2)cc1)C(=O)OCC [Diethyl 2-(2-(4-(4-benzoyl-5-phenyl-3-(5-sulphamoyl-1,3,4-thiadiazol-2-ylcarbamoyl)-1H-pyrazol-1-yl)phenyl)hydrazono)malonate (16)]
164 nM | 160 nM | 1000 nM | 370 nM | 1530 nM | 244 nM | CC(=O)/C(=N\Nc1ccc(-n2nc(C(=O)Nc3nnc(S(N)(=O)=O)s3)c(C(=O)c3ccccc3)c2-c2ccccc2)cc1)C(=O)c1ccccc1 [4-Benzoyl-1-(4-(2-(1,3-dioxo-1-phenylbutan-2-ylidene)hydrazinyl)phenyl)-5-phenyl-N-(5-sulphamoyl-1,3,4-thiadiazol-2-yl)-1H-pyrazole-3-carboxamide (12)]
700 nM | 1000 nM | 4800 nM | 1420 nM | 1020 nM | 3180 nM | NS(=O)(=O)c1nnc(NC(=O)c2nn(-c3ccc(NN=C(C(=O)c4ccccc4)C(=O)c4ccccc4)cc3)c(-c3ccccc3)c2C(=O)c2ccccc2)s1 [4-Benzoyl-1-(4-(2-(1,3-dioxo-1,3-diphenylpropan-2-ylidene)hydrazinyl)phenyl)-5-phenyl-N-(5-sulphamoyl-1,3,4-thiadiazol-2-yl)-1H-pyrazole-3-carboxamide (13)]
270 nM | 180 nM | 350 nM | 50 nM | 360 nM | 56 nM | NS(=O)(=O)c1nnc(NC(=O)c2nn(-c3ccc(I)cc3)c(-c3ccccc3)c2C(=O)c2ccccc2)s1 [4-Benzoyl-1-(4-iodophenyl)-5-phenyl-N-(5-sulphamoyl-1,3,4-thiadiazol-2-yl)-1H-pyrazole-3-carboxamide (10)]
2860 nM | 2400 nM | 4750 nM | 2100 nM | 5830 nM | 848 nM | NS(=O)(=O)c1nnc(NC(=O)c2nn(-c3ccc(/N=N/c4c(O)ccc5ccccc45)cc3)c(-c3ccccc3)c2C(=O)c2ccccc2)s1 [4-Benzoyl-1-(4-((2-hydroxynaphthalen-1-yl)diazenyl)phenyl)-5-phenyl-N-(5-sulphamoyl-1,3,4-thiadiazol-2-yl)-1H-pyrazole-3-carboxamide (8)]
750 nM | 600 nM | 2400 nM | 1740 nM | 6670 nM | 3920 nM | CC(=O)Cn1c(C)cc2cc(-n3nc(C(=O)Nc4nnc(S(N)(=O)=O)s4)c(C(=O)c4ccccc4)c3-c3ccccc3)ccc21 [4-Benzoyl-1-(2-methyl-1-(2-oxopropyl)-1H-indol-5-yl)-5-phenyl-N-(5-sulphamoyl-1,3,4-thiadiazol-2-yl)-1H-pyrazole-3-carboxamide (18)]
330 nM | 80 nM | 570 nM | 130 nM | 572 nM | 103 nM | CC(=O)C(=NNc1ccc(-n2nc(C(=O)Nc3nnc(S(N)(=O)=O)s3)c(C(=O)c3ccccc3)c2-c2ccccc2)cc1)C(C)=O [4-Benzoyl-1-(4-(2-(2,4-dioxopentan-3-ylidene)hydrazinyl)phenyl)-5-phenyl-N-(5-sulphamoyl-1,3,4-thiadiazol-2-yl)-1H-pyrazole-3-carboxamide (11)]
1210 nM | 800 nM | 910 nM | 140 nM | 1190 nM | 125 nM | CCOC(=O)/C(=N/Nc1ccc(-n2nc(C(=O)Nc3nnc(S(N)(=O)=O)s3)c(C(=O)c3ccccc3)c2-c2ccccc2)cc1)C(C)=O [Ethyl 2-(2-(4-(4-benzoyl-5-phenyl-3-(5-sulphamoyl-1,3,4-thiadiazol-2-ylcarbamoyl)-1H-pyrazol-1-yl)phenyl)hydrazono)-3-oxobutanoate (15)]
1320 nM | 1300 nM | 800 nM | 850 nM | 1530 nM | 498 nM | CCOC(=O)/C(=N/Nc1ccc(-n2nc(C(=O)Nc3nnc(S(N)(=O)=O)s3)c(C(=O)c3ccccc3)c2-c2ccccc2)cc1)C(=O)c1ccccc1 [Ethyl 2-(2-(4-(4-benzoyl-5-phenyl-3-(5-sulphamoyl-1,3,4-thiadiazol-2-ylcarbamoyl)-1H-pyrazol-1-yl)phenyl)hydrazono)-3-oxo-3-phenylpropanoate (14)]
200 nM | 800 nM | 230 nM | 30 nM | 95 nM | 18 nM | NS(=O)(=O)c1nnc(NC(=O)c2nn(-c3ccc(/N=N/c4ccc(O)cc4)cc3)c(-c3ccccc3)c2C(=O)c2ccccc2)s1 [4-Benzoyl-1-(4-((4-hydroxyphenyl)diazenyl)phenyl)-5-phenyl-N-(5-sulphamoyl-1,3,4-thiadiazol-2-yl)-1H-pyrazole-3-carboxamide (9)]
780 nM | 200 nM | 330 nM | 80 nM | 310 nM | 108 nM | CC(=O)/C(=N\Nc1ccc(-n2nc(C(=O)Nc3nnc(S(N)(=O)=O)s3)c(C(=O)c3ccccc3)c2-c2ccccc2)cc1)C(=O)OC(C)(C)C [tert-Butyl 2-(2-(4-(4-benzoyl-5-phenyl-3-(5-sulphamoyl-1,3,4-thiadiazol-2-ylcarbamoyl)-1H-pyrazol-1-yl)phenyl)hydrazono)-3-oxobutanoate (17)]
